Experimental data from PubChem BioAssay AID1745844 (Carcinogenic Potency Database (CPDB), 2022).

System: rodent lifetime carcinogenesis bioassay, tumor incidence TD50
Assay: carcinogenic potency in animals, long-term in vivo studies, CPDB compilation (AID 1745844)

Compound: Cc1ccc(S(=O)(=O)Oc2ccc(N=Nc3ccc(-c4ccc(N=Nc5c(O)ccc6cc(S(=O)(=O)O)cc(S(=O)(=O)O)c56)c(C)c4)cc3C)cc2)cc1
- TD50 (rat, strain Fischer 344, females, in drinking water, site: Zymbal's gland, lesion: adenoma + carcinoma, dosed 98 weeks, study length 104 weeks): 15.6 mg/kg/day
- TD50 (rat, strain Fischer 344, females, in drinking water, site: Zymbal's gland, lesion: adenoma, dosed 98 weeks, study length 104 weeks): 65.4 mg/kg/day
- TD50 (rat, strain Fischer 344, females, in drinking water, site: Zymbal's gland, lesion: carcinoma, dosed 98 weeks, study length 104 weeks): 18 mg/kg/day
- TD50 (rat, strain Fischer 344, females, in drinking water, site: adrenal medulla, lesion: pheochromocytoma, benign, dosed 98 weeks, study length 104 weeks): 38.3 mg/kg/day
- TD50 (rat, strain Fischer 344, females, in drinking water, site: adrenal medulla, lesion: pheochromocytoma, malignant + pheochromocytoma, benign, dosed 98 weeks, study length 104 weeks): 31.6 mg/kg/day
- TD50 (rat, strain Fischer 344, females, in drinking water, site: any site (literature study), lesion: several types, types named in the paper, dosed 98 weeks, study length 104 weeks): 2.31 mg/kg/day
- TD50 (rat, strain Fischer 344, females, in drinking water, site: clitoral gland + colon + duodenum + jejunum + liver + lung + pharynx + rectum + skin + tongue + Zymbal's gland, lesion: adenoma + adenoma, bilateral + carcinoma + carcinoma, bilateral + adenomatous polyp + mucinous cystadenocarcinoma + hepatocellular c, dosed 98 weeks, study length 104 weeks): 3.11 mg/kg/day
- TD50 (rat, strain Fischer 344, females, in drinking water, site: clitoral gland, lesion: adenoma + adenoma, bilateral + carcinoma + carcinoma, bilateral, dosed 98 weeks, study length 104 weeks): 4.75 mg/kg/day
- TD50 (rat, strain Fischer 344, females, in drinking water, site: clitoral gland, lesion: adenoma + adenoma, bilateral, dosed 98 weeks, study length 104 weeks): 11.9 mg/kg/day
- TD50 (rat, strain Fischer 344, females, in drinking water, site: clitoral gland, lesion: carcinoma + carcinoma, bilateral, dosed 98 weeks, study length 104 weeks): 8.97 mg/kg/day
- TD50 (rat, strain Fischer 344, females, in drinking water, site: colon + rectum, lesion: adenomatous polyp + mucinous cystadenocarcinoma, dosed 98 weeks, study length 104 weeks): 136 mg/kg/day
- TD50 (rat, strain Fischer 344, females, in drinking water, site: duodenum + jejunum, lesion: adenomatous polyp + mucinous cystadenocarcinoma, dosed 98 weeks, study length 104 weeks): 213 mg/kg/day
- TD50 (rat, strain Fischer 344, females, in drinking water, site: liver, lesion: hepatocellular adenoma + hepatocellular carcinoma + neoplastic nodule, dosed 98 weeks, study length 104 weeks): 14.2 mg/kg/day
- TD50 (rat, strain Fischer 344, females, in drinking water, site: liver, lesion: hepatocellular carcinoma + neoplastic nodule, dosed 98 weeks, study length 104 weeks): 14.2 mg/kg/day
- TD50 (rat, strain Fischer 344, females, in drinking water, site: liver, lesion: hepatocellular carcinoma, dosed 98 weeks, study length 104 weeks): 42.5 mg/kg/day
- TD50 (rat, strain Fischer 344, females, in drinking water, site: liver, lesion: neoplastic nodule, dosed 98 weeks, study length 104 weeks): 18 mg/kg/day
- TD50 (rat, strain Fischer 344, females, in drinking water, site: lung, lesion: alveolar/bronchiolar adenoma + alveolar/bronchiolar carcinoma, dosed 98 weeks, study length 104 weeks): 23.6 mg/kg/day
- TD50 (rat, strain Fischer 344, females, in drinking water, site: lung, lesion: alveolar/bronchiolar adenoma, dosed 98 weeks, study length 104 weeks): 26.3 mg/kg/day
- TD50 (rat, strain Fischer 344, females, in drinking water, site: mammary gland, lesion: adenocarcinoma, dosed 98 weeks, study length 104 weeks): 40.6 mg/kg/day
- TD50 (rat, strain Fischer 344, females, in drinking water, site: mammary gland, lesion: adenoma, dosed 98 weeks, study length 104 weeks): 67 mg/kg/day
- TD50 (rat, strain Fischer 344, females, in drinking water, site: mammary gland, lesion: fibroadenoma, dosed 98 weeks, study length 104 weeks): 11.4 mg/kg/day
- TD50 (rat, strain Fischer 344, females, in drinking water, site: multiple organs, lesion: leukemia + mononuclear-cell leukemia, dosed 98 weeks, study length 104 weeks): 9.44 mg/kg/day
- TD50 (rat, strain Fischer 344, females, in drinking water, site: pharynx + tongue, lesion: squamous-cell carcinoma + squamous-cell papilloma, dosed 98 weeks, study length 104 weeks): 31.4 mg/kg/day
- TD50 (rat, strain Fischer 344, females, in drinking water, site: pharynx + tongue, lesion: squamous-cell carcinoma, dosed 98 weeks, study length 104 weeks): 227 mg/kg/day
- TD50 (rat, strain Fischer 344, females, in drinking water, site: pharynx + tongue, lesion: squamous-cell papilloma, dosed 98 weeks, study length 104 weeks): 36.5 mg/kg/day
- TD50 (rat, strain Fischer 344, females, in drinking water, site: pharynx, lesion: squamous-cell papilloma, dosed 98 weeks, study length 104 weeks): 72.4 mg/kg/day
- TD50 (rat, strain Fischer 344, females, in drinking water, site: pituitary gland, lesion: pars distalis adenoma, dosed 98 weeks, study length 104 weeks): 11.1 mg/kg/day
- TD50 (rat, strain Fischer 344, females, in drinking water, site: skin, lesion: basal-cell adenoma + basal-cell carcinoma, dosed 98 weeks, study length 104 weeks): 21.9 mg/kg/day
- TD50 (rat, strain Fischer 344, females, in drinking water, site: skin, lesion: basal-cell adenoma, dosed 98 weeks, study length 104 weeks): 28.2 mg/kg/day
- TD50 (rat, strain Fischer 344, females, in drinking water, site: skin, lesion: squamous-cell carcinoma + squamous-cell papilloma, dosed 98 weeks, study length 104 weeks): 49.7 mg/kg/day
- TD50 (rat, strain Fischer 344, females, in drinking water, site: skin, lesion: squamous-cell carcinoma, dosed 98 weeks, study length 104 weeks): 57.3 mg/kg/day
- TD50 (rat, strain Fischer 344, females, in drinking water, site: subcutaneous tissue, lesion: fibrosarcoma + fibroma, dosed 98 weeks, study length 104 weeks): 78.2 mg/kg/day
- TD50 (rat, strain Fischer 344, females, in drinking water, site: thyroid gland, lesion: c-cell adenoma, dosed 98 weeks, study length 104 weeks): 48.7 mg/kg/day
- TD50 (rat, strain Fischer 344, females, in drinking water, site: thyroid gland, lesion: follicular-cell adenoma + follicular-cell carcinoma, dosed 98 weeks, study length 104 weeks): 28.8 mg/kg/day
- TD50 (rat, strain Fischer 344, females, in drinking water, site: thyroid gland, lesion: follicular-cell adenoma, dosed 98 weeks, study length 104 weeks): 53.5 mg/kg/day
- TD50 (rat, strain Fischer 344, females, in drinking water, site: thyroid gland, lesion: follicular-cell carcinoma, dosed 98 weeks, study length 104 weeks): 68.9 mg/kg/day
- TD50 (rat, strain Fischer 344, females, in drinking water, site: tongue, lesion: squamous-cell carcinoma + squamous-cell papilloma, dosed 98 weeks, study length 104 weeks): 65.7 mg/kg/day
- TD50 (rat, strain Fischer 344, females, in drinking water, site: tongue, lesion: squamous-cell papilloma, dosed 98 weeks, study length 104 weeks): 75 mg/kg/day
- TD50 (rat, strain Fischer 344, females, in drinking water, site: uterus, lesion: endometrial stromal polyp + endometrial stromal sarcoma, dosed 98 weeks, study length 104 weeks): 16.4 mg/kg/day
- TD50 (rat, strain Fischer 344, females, in drinking water, site: uterus, lesion: endometrial stromal polyp, dosed 98 weeks, study length 104 weeks): 20.1 mg/kg/day
- TD50 (rat, strain Fischer 344, males, in drinking water, site: Zymbal's gland, lesion: adenoma + carcinoma, dosed 104 weeks, study length 104 weeks): 27 mg/kg/day
- TD50 (rat, strain Fischer 344, males, in drinking water, site: Zymbal's gland, lesion: carcinoma, dosed 104 weeks, study length 104 weeks): 29.8 mg/kg/day
- TD50 (rat, strain Fischer 344, males, in drinking water, site: adrenal medulla, lesion: pheochromocytoma benign, bilateral + pheochromocytoma, malignant + pheochromocytoma, benign, dosed 104 weeks, study length 104 weeks): 5.94 mg/kg/day
- TD50 (rat, strain Fischer 344, males, in drinking water, site: adrenal medulla, lesion: pheochromocytoma, benign, dosed 104 weeks, study length 104 weeks): 6.69 mg/kg/day
- TD50 (rat, strain Fischer 344, males, in drinking water, site: any site (literature study), lesion: several types, types named in the paper, dosed 104 weeks, study length 104 weeks): 3.23 mg/kg/day
- TD50 (rat, strain Fischer 344, males, in drinking water, site: liver + skin + Zymbal's gland, lesion: hepatocellular carcinoma + neoplastic nodule + basal-cell adenoma + basal-cell carcinoma + keratoacanthoma + sebaceous gland carci, dosed 104 weeks, study length 104 weeks): 2.8 mg/kg/day
- TD50 (rat, strain Fischer 344, males, in drinking water, site: liver, lesion: hepatocellular adenoma + hepatocellular carcinoma + neoplastic nodule, dosed 104 weeks, study length 104 weeks): 7.02 mg/kg/day
- TD50 (rat, strain Fischer 344, males, in drinking water, site: liver, lesion: hepatocellular carcinoma + neoplastic nodule, dosed 104 weeks, study length 104 weeks): 7.02 mg/kg/day
- TD50 (rat, strain Fischer 344, males, in drinking water, site: liver, lesion: hepatocellular carcinoma, dosed 104 weeks, study length 104 weeks): 20.2 mg/kg/day
- TD50 (rat, strain Fischer 344, males, in drinking water, site: liver, lesion: neoplastic nodule, dosed 104 weeks, study length 104 weeks): 10.4 mg/kg/day
- TD50 (rat, strain Fischer 344, males, in drinking water, site: lung, lesion: alveolar/bronchiolar adenoma + alveolar/bronchiolar carcinoma, dosed 104 weeks, study length 104 weeks): 47.2 mg/kg/day
- TD50 (rat, strain Fischer 344, males, in drinking water, site: lung, lesion: alveolar/bronchiolar adenoma, dosed 104 weeks, study length 104 weeks): 39 mg/kg/day
- TD50 (rat, strain Fischer 344, males, in drinking water, site: multiple organs, lesion: mononuclear-cell leukemia, dosed 104 weeks, study length 104 weeks): 12.3 mg/kg/day
- TD50 (rat, strain Fischer 344, males, in drinking water, site: pharynx + tongue, lesion: squamous-cell papilloma, dosed 104 weeks, study length 104 weeks): 71 mg/kg/day
- TD50 (rat, strain Fischer 344, males, in drinking water, site: skin, lesion: basal-cell adenoma + basal-cell carcinoma, dosed 104 weeks, study length 104 weeks): 3.3 mg/kg/day
- TD50 (rat, strain Fischer 344, males, in drinking water, site: skin, lesion: basal-cell adenoma, dosed 104 weeks, study length 104 weeks): 3.58 mg/kg/day
- TD50 (rat, strain Fischer 344, males, in drinking water, site: skin, lesion: basal-cell carcinoma, dosed 104 weeks, study length 104 weeks): 22.8 mg/kg/day
- TD50 (rat, strain Fischer 344, males, in drinking water, site: skin, lesion: keratoacanthoma, dosed 104 weeks, study length 104 weeks): 20.4 mg/kg/day
- TD50 (rat, strain Fischer 344, males, in drinking water, site: skin, lesion: sebaceous gland carcinoma + sebaceous adenoma, dosed 104 weeks, study length 104 weeks): 23.4 mg/kg/day
- TD50 (rat, strain Fischer 344, males, in drinking water, site: skin, lesion: squamous-cell carcinoma + squamous-cell papilloma, dosed 104 weeks, study length 104 weeks): 12.7 mg/kg/day
- TD50 (rat, strain Fischer 344, males, in drinking water, site: skin, lesion: squamous-cell carcinoma, dosed 104 weeks, study length 104 weeks): 16.2 mg/kg/day
- TD50 (rat, strain Fischer 344, males, in drinking water, site: testis, lesion: interstitial-cell adenoma, bilateral + interstitial-cell adenoma, dosed 104 weeks, study length 104 weeks): 3.39 mg/kg/day

Compound: CCOP(=O)(CC1CO1)OCC (centres undefined)
- TD50 (mouse, strain Ha/ICR, females, i.p., site: lung, lesion: papillary tumor, dosed 64 weeks, study length 64 weeks): 12.4 mg/kg/day

Compound: CCNC(=O)N(CCO)N=O
- TD50 (rat, strain Fischer 344, females, in drinking water, site: mammary tissue, wider than the gland, lesion: carcinoma, dosed 30 weeks, study length 104 weeks): 0.501 mg/kg/day
- TD50 (rat, strain Fischer 344, males, in drinking water, site: liver, lesion: one or several types, types not named, dosed 30 weeks, study length 104 weeks): 1.09 mg/kg/day
- TD50 (rat, strain Fischer 344, males, in drinking water, site: lung, lesion: one or several types, types not named, dosed 30 weeks, study length 104 weeks): 0.446 mg/kg/day
- TD50 (rat, strain Fischer 344, males, in drinking water, site: nervous system, lesion: one or several types, types not named, dosed 30 weeks, study length 104 weeks): 0.754 mg/kg/day
- TD50 (rat, strain Fischer 344, males, in drinking water, site: skin, lesion: one or several types, types not named, dosed 30 weeks, study length 104 weeks): 0.641 mg/kg/day
- TD50 (rat, strain Fischer 344, males, in drinking water, site: tunica vaginalis, lesion: mesothelioma, dosed 30 weeks, study length 104 weeks): 0.576 mg/kg/day
